The source of these data is PMC10092485, “Sialic Acid 4‐N‐Piperazine and Piperidine Derivatives Bind with High Affinity to the P. mirabilis Sialic Acid Sodium Solute Symporter” (Chemmedchem, 2022).

What all share (format): binding
The target in test [1] is T1, PmSiaT (Proteus mirabilis, UniProt B4EZY7).
T1 construct: gene siaT; detergent-solubilised transporter in DDM; extinction coefficient 76,445
Put plainly: nanoDSF thermal shift. The settings on record: PBS, 0.0174 % DDM, 2 μM protein, 1.25 mM ligand; reference ligand for all shifts.

Test [2] has as its target T1, PmSiaT. The test is described as follows: isothermal titration calorimetry. As to conditions: 25 °C; 50 mM Tris-HCl, 150 mM NaCl, 0.0174 % DDM, pH 8.0 (at 5 °C); n fixed to 1. The source says: isothermal titration calorimetry on PmSiaT
The target of test [3] is T1, PmSiaT. The test is described as follows: nanoDSF thermal shift. The settings on record: PBS, 0.0174 % DDM, 2 μM protein, 1.25 mM ligand; shift counted from the Neu5Ac complex.

The pKd is the Kd on a negative log10 scale, so that one unit is a factor of ten.

Structures are written as SMILES. pKd: −log10 of the molar value.

T1 sequence (B4EZY7 whole entry): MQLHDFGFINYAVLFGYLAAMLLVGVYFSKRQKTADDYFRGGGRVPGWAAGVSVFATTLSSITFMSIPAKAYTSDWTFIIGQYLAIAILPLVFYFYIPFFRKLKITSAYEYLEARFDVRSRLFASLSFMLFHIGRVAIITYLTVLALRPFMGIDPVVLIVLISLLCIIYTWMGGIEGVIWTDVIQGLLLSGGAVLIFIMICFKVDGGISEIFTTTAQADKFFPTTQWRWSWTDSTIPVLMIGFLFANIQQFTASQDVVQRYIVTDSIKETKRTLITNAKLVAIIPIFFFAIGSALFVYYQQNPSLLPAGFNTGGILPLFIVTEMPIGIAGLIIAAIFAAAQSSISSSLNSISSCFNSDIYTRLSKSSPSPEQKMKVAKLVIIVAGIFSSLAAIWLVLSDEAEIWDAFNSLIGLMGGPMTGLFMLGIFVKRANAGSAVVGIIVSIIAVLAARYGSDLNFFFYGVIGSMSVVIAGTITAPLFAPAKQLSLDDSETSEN

For `CC(=O)N[C@H]1[C@H]([C@H](O)[C@H](O)CO)OC(O)(C(=O)O)C[C@@H]1O` (stereo partly drawn) [Neu5Ac], the ΔT m entry at PmSiaT [1] is “The ΔT m reported are given in °C and relative to Neu5Ac”. Turning to `CC(=O)N[C@H]1[C@H]([C@H](O)[C@H](O)CO)OC(O)(C(=O)O)C[C@@H]1N1CCN(C(=O)c2cccc(Cl)c2Cl)CC1` (stereo partly drawn) [6 c, 5‐Acetamido‐4‐[4‐(2,3‐dichlorobenzoyl)piperazin‐1‐yl]‐3,4,5‐ trideoxy‐D‐glycero‐β‐D‐galacto‐nonulosonic acid], the negative logarithm of the Kd (pKd) at PmSiaT [2] was 6.33. Consider `CC(=O)N[C@H]1[C@H]([C@H](O)[C@H](O)CO)OC(O)(C(=O)O)C[C@@H]1N1CCC(c2cccc(C(F)(F)F)c2)CC1` (stereo partly drawn) [3 h, 5‐Acetamido‐3,4,5‐ trideoxy‐4‐[4‐(3‐trifluoromethylphenyl)piperidin‐1‐yl]‐D‐glycero‐β‐D‐galacto‐nonulosonic acid], for which, at PmSiaT [3], the “ΔT m (relative to Neu5Ac)” value was “piperidine or piperazine‐linked halogenated aromatic residues showed the largest thermal stabilizations”. On the same count and under the same terms, for `CC(=O)N[C@H]1[C@H]([C@H](O)[C@H](O)CO)OC(O)(C(=O)O)C[C@@H]1N1CCC(c2ccc(Br)cc2)CC1` (stereo partly drawn) [3 g, 5‐Acetamido‐4‐[4‐(4‐bromophenyl)piperidin‐1‐yl]‐3,4,5‐ trideoxy‐D‐glycero‐β‐D‐galacto‐nonulosonic acid] the value was “piperidine or piperazine‐linked halogenated aromatic residues showed the largest thermal stabilizations”. `CC(=O)N[C@H]1[C@H]([C@H](O)[C@H](O)CO)OC(O)(C(=O)O)C[C@@H]1N1CCC(c2cccc(Br)c2)CC1` (stereo partly drawn) [3 f, 5‐Acetamido‐4‐[4‐(3‐bromophenyl)piperidin‐1‐yl]‐3,4,5‐ trideoxy‐D‐glycero‐β‐D‐galacto‐nonulosonic acid] had a pKd on PmSiaT [2] of 5.88. On the same count and under the same terms, with `CC(=O)N[C@H]1[C@H]([C@H](O)[C@H](O)CO)OC(O)(C(=O)O)C[C@@H]1N1CCC(c2cccc(O)c2)CC1` (stereo partly drawn) [3 i, 5‐Acetamido‐4‐[4‐(3‐hydroxyphenyl)piperidin‐1‐yl]‐3,4,5‐ trideoxy‐D‐glycero‐β‐D‐galacto‐nonulosonic acid] the figure was 4.75.
